# Values of other authors, collected in patent US10716774B1, “Pharmaceutical compositions containing isotretinoin with improved dissolution profile and enhanced stability” (Yale Pharmaceuticals LLC, priority 2018, dated 2020).
# Settings: after multiple dosing, in man
smiles,measurement,value
CC1=C(/C=C/C(C)=C/C=C/C(C)=C/C(=O)O)C(C)(C)CCC1=O [4-oxo-isotretinoin],plasma concentration relative to that of the parent drug,about 4 fold
